The values that follow come from patent publication EP4382122A1, “PEPTIDE COMPLEX IPF-H2A FOR MODULATION IMMUNE FUNCTION OF THE HUMAN BODY” (Zhabilov, Harry H., priority 2022, dated 2024).

The test system of data set [1] is HSV-1/HSV-2. The experiment in a line: Infectious viral yield, HSV-1/HSV-2 in Vero cells (text, type not separated). The class given is cell-based.
Data set [2] concerns HSV-2 (Bja strain). The experiment in a line: Infectious viral yield of HSV-2 in Vero cells (Reed and Muench titration).
Procedure: (§1) Viral strains were cultured in DMEM nutrient medium containing 2% FBS,1% antibiotic solution (100 U/ml penicillin G sodium and 100 µg/ml streptomycin sulphate).
(§2) Infectious virus titer was account for, also by Reed and Muench's method of final dilutions, and expressed as TCID50 (50% Tissue Culture Infectious Dose) and also quantitatively through the colorimetric MTT method. After triple freezing and thawing, the resulting virus- containing was centrifuged (2500 rpm/min, 15 min at 4 °C), aliquoted and frozen at -80°C.
(§3) Immediately prior to work, ten-fold logarithmic dilutions of the relevant virus strain were prepared in DMEM nutrient medium containing 2% FBS, 1% antibiotic solution (100 U/mL penicillin G sodium and 100 µg/mL streptomycin sulphate). When the cell monolayer reached between 70- 80% confluence (concentration 5 × 10^3 cells/well, usually after 24 h), the nutrient medium was removed from the wells. The cell monolayer was infected with the prepared viral dilutions of 0.1 mL. With each viral dilution, 4 wells were infected. The virus was adsorbed for 1 h ina thermostat at a temperature of 37°C, then to each well was added 0.1 mL of nutrient medium. Four wells containing uninfected cells were used for cell control. Thus treated plate was incubated in a thermostat at a temperature of 37°C and at the required humidity. In the event of a cytopathic effect (CPE) (appearance of round cells, unevenly disseminated in the cell monolayer, with a tendency to formfoci), it was waited until the development of 2-3 + (50 - 75% of the cell monolayer) or until it stopped progressing. The viral infection titer is expressed as TCID50 (50% Tissue Culture Infectious Dose). The presence or absence of a viral cytopathic effect is determined by the following formula: T = (logofdilution,where%infectedisover50%) + (proportionalityfactor×logofdilutionfactor). […] Proportionality factor = [(%infectedover50%)−50%][(%infectedover50%)−(% infected below; 50%)].
(§4) Extracellular virus samples were titrated in a 24-hour Vero monolayer in 96-well plates, by taking into account the infectious viral titer in log10, according to the final dilution method of Reed & Muenh. Differences in infectious viral titers between experimental and control samples are expressed as Δlog. Based on the reported results, dose-response graphs were plotted and minimum inhibitory concentrations 50 (MIC50) were determined. Values of Δlog10 ≥ 1 are considered to be reliable results for the performed tests.
For data set [3], the system named is Vero cells. Kind of data set: Cytotoxicity on Vero cells, microscopic observation of cell monolayer morphology. Particulars: 72 h.
Procedure: For analysis of the anti-proliferative and potentially antiviral properties of the IPF-H2A complex, according to the present invention, in cell culture, IPF-H2A was dissolved to an initial concentration of 50 mg/ml (background solution). Using the solution, a series of dilutions are done ex tempore with a nutrient medium DMEM (Dulbecco's Modified Eagle Medium, Sigma-Aldrich, Germany), which includes 2% fetal bovine serum (FBS, Gibco) and 1% antibiotic solution (100 U/ml penicillin and 100 µg/ml streptomycin sulphate (Gibco, USA)) (working solutions), which solutions are then filtered through sterile antibacterial filters with a pore diameter of 0.45 µm. As a model system in the tests was used a kidney monolayer cell line of African Green Monkey (Cercopithecus aethiops). […]
For data set [4], the system named is HSV-1/HSV-2. The experiment in a line: CPE inhibition test, microscopic, HSV-1/HSV-2 in Vero cells (type not separated). Format: cell-based. Particulars: infected Vero cells, at MNC, 72 hours of treatment. Here is the method: Dose-dependent curves were derived to determine the inhibitory concentration leading to 50% inhibition of the viral cytopathic effect (IC50).
Initially, the antiviral activity of the IPF test substance was assessed by a CPE inhibition test. […] Cell cultures were observed daily under a light microscope as to theCPE development. […] The results of the experiments were evaluated on the basis of comparison with virus-free and no-added cells (cell control),and with cells infected with HSV-1/HSV-2 without substance addition (viral control).

Data set [5] concerns Vero cells. The experiment in a line: Cytotoxicity on Vero cells, MTT Assay. Particulars: 72 h.
Procedure: Using the solution, a series of dilutions are done ex tempore with a nutrient medium DMEM (Dulbecco's Modified Eagle Medium, Sigma-Aldrich, Germany), which includes 2% fetal bovine serum (FBS, Gibco) and 1% antibiotic solution (100 U/ml penicillin and 100 µg/ml streptomycin sulphate (Gibco, USA)) (working solutions), which solutions are then filtered through sterile antibacterial filters with a pore diameter of 0.45 µm. As a model system in the tests was used a kidney monolayer cell line of African Green Monkey (Cercopithecus aethiops).
Cells were cultured on DMEM nutrient medium with termoinactivated 10% FBS, 1% sodium pyruvate (Sigma- Aldrich, Germany) and antibiotics (penicillin (100 U/ml), streptomycin sulphate (100 µg/ml) (growingmedium). The cell cultures were incubated at 37 °C at 5% CO2 and the required humidity. The blending of the Vero cells was done at 1:3 - 1:5 at a density of about 2 × 10^5 cells/ml, then resuspended several times and transferred onto cell culture mattresses (25 cm^2). Before inoculating the cells with virus and/or IPF-H2A dilutions, the monolayer was washed three times with phosphate-buffered saline (PBS) with pH 7.4 for 1- 2 minutes, after which the solution was removed. All experiments were performed during the exponential phase of cell growth. […]
The subject of data set [6] is HSV-1 (Victoria strain). Kind of data set: CPE inhibition test with MTT Assay, HSV-1 in Vero cells. Format: cell-based, Herpes Simplex virus type 1 (HSV-1).
Data set [7] has as its system HSV-1 (Victoria strain). Kind of data set: Infectious viral yield of HSV-1 in Vero cells (Reed and Muench titration).
Procedure: as §1, §2, §3, §4
In data set [8] the test system is HCoV-229E. The class given is cell-based, human coronavirus HCoV-229E.
Data set [9] deals with HCoV-229E. Format: cell-based, human coronavirus HCoV-229E. The following applies: for Δlog10: HCoV-229E, vs virus control.
Data set [10] relates to human embryonic lung (Lep) cell line. The experiment in a line: Cytotoxicity on Lep cells, microscopic surveillance of cell monolayer morphology. The following applies: 96 hours.
Procedure: As a model system is used monolayer of human embryonic lung (Lep) cell line. The cells are cultivated in DMEM with added thermally inactivated 10% FBS, 1% Sodium pyruvate (Sigma-Aldrich, Germany) and antibiotics (penicillin- 100 U/ml), streptomycin sulphate (100 µg/ml) (growth medium) and the cell cultures are incubated at 37°C in 5% CO2 and in the presence of the required humidity.
MTT analysis of the cell survival and proliferation was performed in a wide range of concentrations of the tested substance. […] The test substance is applied in concentration range 0.0001- 1 mg/ml, while the anti-nfluenza medicine Tamiflu® - 0.001- 7.5 mg/ml for 96 hours. The untreated Lep cells whose survival was accepted as 100%, were used as a negative control. […] The analysis of the cell morphology surveillance is synchronized with the MTT analysis of the cell surveillance.
Data set [11] has the same test system. The experiment in a line: Cytotoxicity on Lep cells, MTT test. More on the design: CD50: unit not given beside the values.

Like-named read-outs stand apart in the source and are kept apart here.

Take `Nc1nc2c(ncn2COCCO)c(=O)[nH]1` [ACV, 2-amino-1,9-dihydro-9-((2-hydroxyethoxy)methyl)-6H-purin-6-one]: the “concentration range that effectively inhibits the yield of infectious viral progeny / replication” value in [1] is 0.00001 to 1 mg/mL. The “Viral yield (log10 TCID50)” value turned out to be 5.567 ± 0.000 log10 TCID50 in [2] (concentration 0.0005 mg/mL); 5.300 ± 0.288 log10 TCID50 in data set [2] (concentration 0.005 mg/mL); 4.500 ± 0.125 log10 TCID50 in data set [2] (concentration 0.05 mg/mL); 4.300 ± 0.237 log10 TCID50 in data set [2] (concentration 0.1 mg/mL); 4.005 ± 0.166 log10 TCID50 in data set [2] (concentration 1 mg/mL); 4.500 ± 0.763 log10 TCID50 in data set [7] (concentration 0.0005 mg/mL). Further, the “Viral yield (log10 TCID50)” value in [7] (concentration 0.005 mg/mL) stood at 4.530 ± 0.166 log10 TCID50; in data set [7] (concentration 0.05 mg/mL), 4.300 ± 0.763 log10 TCID50; in data set [7] (concentration 0.1 mg/mL), 4.000 ± 0.288 log10 TCID50; in data set [7] (concentration 1 mg/mL) it was 2.7 ± 0.500 log10 TCID50. Also, the Δlog10 in data set [2] (concentration 0.005 mg/mL) came to 0.8; in data set [2] (concentration 0.05 mg/mL), 1.0; in data set [2] (concentration 0.1 mg/mL), 1.0; in data set [2] (concentration 1 mg/mL), 1.3; in data set [7] (concentration 0.0005 mg/mL), 0.8; in data set [7] (concentration 0.005 mg/mL), 0.8. In addition, the values for the Δlog10 in data set [7] (concentration 0.05 mg/mL), in data set [7] (concentration 0.1 mg/mL) and in [7] (concentration 1 mg/mL) were 1.0, 1.6 and 2.6, respectively. In addition, the CD50 in [3] is reported as 0.5 ± 0.02 mg/mL; in data set [5] it was 0.5 ± 0.1 mg/mL. In data set [4], the “CPE suppression of HSV-1/HSV-2” value was “less pronounced CPE inhibitory effect”. Besides, the “% cellular protection at MNC” value in data set [6] (HSV-1 (Victoria strain), Vero cells, MTT Assay) was 100%. Further, the protection in data set [6] (HSV-1 strain Victoria, concentration range of 0.0005- 0.01 mg/mL) is on record as 100%.
With `CCOC(=O)C1=C[C@@H](OC(CC)CC)[C@H](NC(C)=O)[C@@H](N)C1` [Tamiflu, oseltamivir phosphate], in [8], the “inhibition of CPE of HCoV-229E” value is “Less expressed CPE inhibition”. Moreover, the “concentration range that effectively inhibits the infectious viral yield / replication” value in [9] was 0.00001 to 1 mg/mL. Moreover, the Δlog10 in [9] (concentration 0.0001 mg/ml) is 0.8; in data set [9] (concentration 0.001 mg/ml), 1.3; in data set [9] (concentration 0.01 mg/ml), 1.3; in data set [9] (concentration 0.1 mg/ml) it was 1.3; in [9] (concentration 1.0 mg/ml), 1.8. For the same compound, the CD50 in [10] is given as 2.5 ±0.02; in [11] (96 hours, MTT test) it was 2.5 ±0.06. The MNC in [10] is 0.001 ± 0.6 mg/mL; in data set [11] (96 hours, MTT test) it was 0.005 ± 0.15 mg/mL. For the same compound, the “toxicity relative to IPF-H2A peptide complex” value in data set [11] (comparison of cell survival data) is listed as “twentyfold more toxic”.
